According to patent US7232827B2, “Heteroaryl substituted 2-pyridinyl and 2-pyrimidinyl-6,7,8,9-tetrahydropyrimido[1,2-a]pyrimidin-4-one derivatives” (Sanofi-Aventis, priority 2002, dated 2007):

Target: GSK3β (Homo sapiens, UniProt P49841)
Test: Inhibitory activity against GSK3β (33P-ATP phosphorylation of prephosphorylated GS1 peptide)
Format: biochemical
Conditions: single compounds; first or second protocol not specified
Method: Two different protocols can be used.
In a first protocol: 7.5 μM of prephosphorylated GS1 peptide and 10 μM ATP (containing 300,000 cpm of 33P-ATP) were incubated in 25 mM Tris-HCl, pH 7.5, 0.6 mM DTT, 6 mM MgCl2, 0.6 mM EGTA, 0.05 mg/ml BSA buffer for 1 hour at room temperature in the presence of GSK3β (total reaction volume: 100 microliters).
In a second protocol: 4.1 μM of prephosphorylated GS1 peptide and 42 μM ATP (containing 260,000 cpm 33P-ATP) were incubated in 80 mM Mes-NaOH, pH 6.5, 1 mM Mg acetate, 0.5 mM EGTA, 5 mM 2-mercaptoethanol, 0.02% Tween 20, 10% glycerol buffer for 2 hours at room temperature in the presence of GSK3β.
Inhibitors were solubilised in DMSO (final solvent concentration in the reaction medium, 1%).
The reaction was stopped with 100 microliters of a solution made of 25 g polyphosphoric acid (85% P2O5), 126 ml 85% H3PO4, H2O to 500 ml and then diluted to 1:100 before use. An aliquot of the reaction mixture was then transferred to Whatman P81 cation exchange filters and rinsed with the solution described above. Incorporated 33P radioactivity was determined by liquid scintillation spectrometry.
The phosphorylated GS-1 peptide had the following sequence: NH2-[…](P)EDEE-COOH.

Chain of GSK3β (P49841 whole entry, species assumed): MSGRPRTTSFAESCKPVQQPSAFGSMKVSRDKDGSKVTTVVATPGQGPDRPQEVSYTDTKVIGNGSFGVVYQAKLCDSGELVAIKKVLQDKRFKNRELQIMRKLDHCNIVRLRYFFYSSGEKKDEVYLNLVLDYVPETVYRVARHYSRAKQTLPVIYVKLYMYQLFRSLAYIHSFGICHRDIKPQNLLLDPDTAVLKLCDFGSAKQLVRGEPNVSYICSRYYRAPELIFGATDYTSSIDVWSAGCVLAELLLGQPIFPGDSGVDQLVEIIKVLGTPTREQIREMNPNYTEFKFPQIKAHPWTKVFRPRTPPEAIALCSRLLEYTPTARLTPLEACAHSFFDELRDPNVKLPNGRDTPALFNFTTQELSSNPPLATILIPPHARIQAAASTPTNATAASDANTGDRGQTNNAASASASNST

Row | IC50 [nM] | Structure (SMILES)
1 | 8 | Cc1ccc2c(n1)CC(CN1CC(C)(C)Cn3c1nc(-c1ccncc1)cc3=O)C2 (racemic) [compound 4 of table 1A, (+/−)-7,7-Dimethyl-9-(2-methyl-6,7-dihydro-5H-[1]pyrindin-6-ylmethyl) -2-(pyridin-4-yl)-6,7,8,9-tetrahydro-pyrimido[1,2-a]pyrimidin-4-one]
2 | 15 | CC1CCn2c(nc(-c3ccncn3)cc2=O)N1CC1COc2ccccc2O1 (centres unmarked) [compound 8 of table 2B, 9-(2,3-Dihydro-benzo[1,4]dioxin-2-ylmethyl)-8-methyl-2-pyrimidin-4-yl-6,7,8,9-tetrahydro-pyrimido[1,2-a]pyrimidin-4-one]
